The structures appear in SMILES notation. Like-named read-outs stand apart in the source and are kept apart here.

For assay [1], the system named is spontaneous transient eCB2.0 signals in cultured neurons. Format: cell-based, rat.
Assay [2] has as its system stimulus-evoked eCB2.0 signal in cultured rat cortical neurons. It is filed as cell-based. The note with it: 20 electrical pulses, 68 min after application; MAGL (JZL184) or FAAH (URB597) inhibition.
Assay [3] deals with GRABeCBmut (eCBmut) sensor. The assay is described as follows: eCBmut fluorescence response to ligands in HEK293T cells. It is filed as cell-based, human. The settings on record: all concentrations tested.
In a further assay the target is wildtype CB1R (Homo sapiens, UniProt P21554). Nature of the assay: Gq-i Ca2+ imaging assay. The note with it: HEK293T cells expressing CB1R. It is filed as cell-based.
wildtype CB1R, sequence (P21554 whole entry): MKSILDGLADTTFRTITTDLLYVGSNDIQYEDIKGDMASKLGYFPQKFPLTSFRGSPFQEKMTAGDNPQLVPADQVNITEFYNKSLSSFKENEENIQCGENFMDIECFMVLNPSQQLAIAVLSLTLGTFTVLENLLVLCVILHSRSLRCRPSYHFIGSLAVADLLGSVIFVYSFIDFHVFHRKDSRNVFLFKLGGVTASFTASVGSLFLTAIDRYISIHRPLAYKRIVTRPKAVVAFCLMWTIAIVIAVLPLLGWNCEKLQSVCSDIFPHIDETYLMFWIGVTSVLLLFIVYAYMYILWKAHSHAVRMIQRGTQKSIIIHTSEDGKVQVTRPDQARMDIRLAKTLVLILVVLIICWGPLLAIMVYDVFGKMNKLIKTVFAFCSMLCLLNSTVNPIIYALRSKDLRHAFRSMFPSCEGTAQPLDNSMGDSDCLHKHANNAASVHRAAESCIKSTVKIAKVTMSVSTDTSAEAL
Assay [4] has as its system eCB2.0. The assay is described as follows: Gq-i Ca2+ imaging assay. It is filed as cell-based, human. The settings on record: HEK293T cells expressing eCB2.0.
The target of another assay is human CB1R (Homo sapiens, UniProt P21554). The assay is described as follows: BRET Gβγ sensor assay, cells expressing CB1R. Format: cell-based. The note with it: 20 μM 2-AG. On the technique in general: Bioluminescence resonance energy transfer reports proximity on the nanometre scale.
human CB1R, sequence (P21554 whole entry): as above
Assay [5] concerns eCB2.0. Nature of the assay: BRET Gβγ sensor assay, cells expressing eCB2.0. Format: cell-based, human. The note with it: 20 μM 2-AG.
The test system of a further assay is eCBmut. Nature of the assay: BRET Gβγ sensor assay, cells expressing eCBmut. The note with it: 20 μM 2-AG. It is filed as cell-based, human.
Assay [6] has as its system GRABeCBmut (eCBmut) sensor. It is filed as cell-based, human. The settings on record: cultured rat cortical neurons, even at 100 μM.
In assay [7] the test system is evoked eCB release in dorsolateral striatum (DLS) slices. More on the design: species or system mouse.
The test system of assay [8] is eCB2.0 fluorescence in hippocampal slices. Nature of the assay: 2-photon imaging of eCB2.0 in acute hippocampal CA1 slices. More on the design: species or system mouse.

Consider `O=C(NN1CCCCC1)c1nn(-c2ccc(Cl)cc2Cl)c2c1CCCc1cc(Cl)ccc1-2` [NESS0327], for which the “effect on spontaneous eCB2.0 transients” value in assay [1] (NESS0327 1 μM, TTX 1 μM) was “no longer observed”.

Take `NC(=O)c1cccc(-c2cccc(OC(=O)NC3CCCCC3)c2)c1` [URB597]: the “effect on decay time constant of evoked eCB2.0 signal” value in [2] was “only a slight—albeit significant—effect on the decay time constant”.

As for `CCCCC/C=C\C/C=C\C/C=C\C/C=C\CCCC(=O)OC(CO)CO` [2-AG, 2-arachidonoylglycerol], the eCBmut fluorescence response result was “no response” in assay [3] and “neither 2-AG nor AEA elicited a response” in assay [6]. Further, the entries for the “jRGECO1a Ca2+ response (G protein activation via Gαq-i)” value at wildtype CB1R and with eCB2.0 [4] were “increased jRGECO1a fluorescent response in a dose-dependent manner” and “failed in inducing jRGECO1a response”, respectively. Besides, the “BRET change (Gβγ activation)” value on human CB1R was “robust increase in BRET”; in the assay with eCB2.0 [5], “no effect on BRET”; in the assay on eCBmut, “no effect on BRET”.

Consider `Cc1c(C(=O)NN2CCCCC2)nn(-c2ccc(Cl)cc2Cl)c1-c1ccc(I)cc1` [AM251], for which, in assay [1], the “effect on spontaneous eCB2.0 transients” value is recorded as “no longer observed”. Besides, the “effect on electrically evoked eCB2.0 signal” value in [7] is reported as “blocked the response”. Also, in assay [8], the “effect on AEA-induced eCB2.0 fluorescence increase” value was “reversed” and the “effect on electrically evoked eCB2.0 signal” value was “eliminated the signal induced by even 100 field stimuli”.

`O=C(Oc1ccc([N+](=O)[O-])cc1)N1CCC(C(O)(c2ccc3c(c2)OCO3)c2ccc3c(c2)OCO3)CC1` [JZL184]: the “effect on decay time constant of evoked eCB2.0 signal” value in [2] is reported as “significantly increased the decay time constant”.

As to `CCCCC/C=C\C/C=C\C/C=C\C/C=C\CCCC(=O)NCCO` [AEA, anandamide], the eCBmut fluorescence response entry in assay [3] is on record as “no response”.

The values above are taken from paper PMC9091059 (Nature biotechnology, 2021).
